Measured values reported in patent EP4790063A1, “PEPTIDE HAVING ACTIVITY FOR […] OF MARINE FOULING” (National University Corporation Hokkaido University, priority 2023, dated 2025).
Read-outs that look alike come from different tables or passages of the source. Non-standard residues stand in square brackets, D forms with d. Residues, ends and D or L forms follow the SMILES beside them. ξ: configuration not given here. *: point of attachment. d(β3hL) = CC(C)C[C@@H](N)CC(=O)O; hPhe = N[C@@H](CCc1ccccc1)C(=O)O; ξβ3hL = CC(C)CC(N)CC(=O)O; Boc = CC(C)(C)OC(=O)*; ξβ3hA = CC(N)CC(=O)O; OBn = c1ccc(CO*)cc1; GABA = NCCCC(=O)O; βAla = NCCC(=O)O

Legend:
[1] = tested on: cypris larvae of Striped Barnacle; assay: Evaluation of antifouling activities and toxicity against the cypris larvae of Striped Barnacle (24-well plate, adhesion and mortality after 48 h); assay type: in vivo, Amphibalanus amphitrite
Procedure: (§1) After solutions of about 2 mL of the test compounds (tripeptides 2 to 10 and dipeptide 11) in ethanol were dispensed into each well of the 24-well polystyrene multi-well plate (3.2 mL/well, well diameter 15.5 mm, well height 17.6 mm, manufactured by Corning), the multi-well plate was air-dried to evaporate the ethanol.
(§2) The test compounds were aliquoted to achieve final concentrations of 0.03, 0.1, 0.3, 1, 3, and 10 µg/mL.
(§3) Subsequently, six individuals of the cypris larvae of Striped Barnacle (hereinafter simply referred to as "barnacle larvae") were transplanted into each well along with 2 mL of pre-filtered natural seawater. The multi-well plate was left standing in an incubator at 25°C, and the barnacle larvae were allowed to grow for two days at 25°C.
In the above procedure, a test for the control group was conducted by dispensing an ethanol solution without any test compound. The natural seawater used in the above test was prepared by diluting the natural seawater collected from the coastal area near Onjuku, Chiba Prefecture (salt concentration: 36 g/kg) with distilled water to adjust a salt concentration of 32 g/kg.
In the test group, the control group, and the comparison group, the tests were conducted in four times (four wells) for one concentration of each test compounds.
Forty-eight hours after the test started, the number of adhered individuals and the number of dead individuals of the barnacle larvae in each well were counted under a stereomicroscope. The adhesion rate (%) and mortality rate (%) of the barnacle larvae in each well were calculated, respectively. […] Similarly, for each test compound, a dose-mortality response curve was created to determine the half-maximal lethal concentration (48h LC50) that causes 50% mortality in the barnacle larvae. As a reference, the value of Boc-3 obtained from non-Patent literature 8 is also described.
In particular, the lower the settlement rate, the stronger the antifouling effect.

[2] = tested on: juvenile shellfish of Mediterranean mussel; assay: Evaluation of the antifouling activity and toxicity against the juvenile shellfish of Mediterranean mussel (coated glass beaker, 3 days); assay type: in vivo, Mytilus galloprovincialis; conditions: for bottom surface-adhered individuals % / bottom surface-crawling individuals % / overturned individuals or closed shell individuals (unadhered) % / wall surface-adhered individuals % / number of byssal threads on the bottom surface / bottom surface-adhered individuals No. / bottom surface-crawling individuals No. / overturned individuals or closed shell individuals (unadhered) No. / wall surface-adhered individuals No.: three days; for bottom surface-adhered individuals No. / bottom surface-crawling individuals No. / overturned individuals or closed shell individuals (unadhered) No. / wall surface-adhered individuals No.: twelve individuals; for antifouling effect (overall determination in words): juvenile Mediterranean mussel, 3.0 µg/mL and 10 µg/mL
Procedure: The sample was dissolved in ethanol to adjust to a concentration of 1 mg/mL. Thirty and 100 µL (30 and 100 µg) of the sample solutions were mixed with the solvent, and the mixtures were brought to a total volume of 500 µL. These mixtures were spread on the bottom surface of the glass beaker of the test container, and the solvent was volatilized by shaking them overnight. As a result, the samples to be evaluated were coated only on the bottom surface of the glass beaker.

[3] = tested on: juvenile shellfish of Mediterranean mussel
Procedure: The sample was dissolved in ethanol to adjust to a concentration of 1 mg/mL. Thirty and 100 µL (30 and 100 µg) of the sample solutions were mixed with the solvent, and the mixtures were brought to a total volume of 500 µL. These mixtures were spread on the bottom surface of the glass beaker of the test container, and the solvent was volatilized by shaking them overnight.
A volume of 10 mL of the test seawater was added to the glass beakers of the test containers. The tests were initiated by introducing twelve test individuals into the test seawater in each beaker. The tests ended after three days, and the observation was conducted.
In Table 2, the terms "bottom surface-adhered individuals" and "wall surface-adhered individuals" refer to individuals that are adhered to the bottom surface and wall surface of the beaker, respectively; the term "bottom surface-crawling individuals" refers to individuals that move along the bottom surface without adhering; the term "overturned individuals or closed shell individuals (unadhered)" refers to individuals that are either overturned or in a closed shell without adhering to the bottom surface; and the term "number of byssal threads on the bottom surface" refers to the number of foot threads that are fixed to the bottom surface. In particular, the greater the reduction in the number of byssal threads, the stronger the effect of adhesion prevention.

[4] = tested on: cypris larvae of Striped Barnacle
Procedure: as §1, §2, §3
In the above procedure, a test for the control group was conducted by dispensing an ethanol solution without any test compound. […]
Forty-eight hours after the test started, the number of adhered individuals and the number of dead individuals of the barnacle larvae in each well were counted under a stereomicroscope. The adhesion rate (%) and mortality rate (%) of the barnacle larvae in each well were calculated, respectively. […]

[5] = Table 4 summary of results from Test Examples 1 to 3 (rounded)
[6] = Test Example 1, concentration causing 50% mortality in barnacle larvae, 48 h, 25°C, tested 0.03-10 µg/mL
[7] = Test Example 1, concentration that prevents adhesion of barnacle larvae by 50%, 48 h, 25°C, tested 0.03-10 µg/mL
[8] = Test Example 3, same manner as Test Example 1
[9] = 3 µg/mL (30 µg), control group 118
[10] = 3 µg/mL (30 µg), twelve individuals, three days

SMILES: CC(C)C(NC(=O)[C@@H]1CCCN1C(=O)[C@H](Cc1ccccc1)NC(=O)OC(C)(C)C)C(C)C(=O)O (stereo partly drawn) [tripeptide 7]
- Antifouling activity 48h EC50 [1, 5]: >10 µg/mL
- Toxicity 48h LC50 [1, 6]: >10 µg/mL
- Antifouling activity 48h EC50 [1, 7]: >10 µg/mL

SMILES: CC(C)(C)OC(=O)N1CCC[C@H]1C(=O)N[C@@H](CC(=O)OCc1ccccc1)c1ccccc1 [dipeptide 14]
- Antifouling activity 48h EC50 [1, 5]: 3.2 µg/mL
- Antifouling activity 48h EC50 [1, 8]: 3.18 µg/mL
- Toxicity 48h LC50 [1, 8]: >10 µg/mL

SMILES: CC(C)CC(CC(=O)OCc1ccccc1)NC(=O)[C@@H]1CCCN1C(=O)[C@H](Cc1ccccc1)NC(=O)OC(C)(C)C (stereo partly drawn) [tripeptide 8] (Boc-Phe-Pro-[ξβ3hL]-OBn)
- Antifouling activity 48h EC50 [1, 5]: 1.1 µg/mL
- Toxicity 48h LC50 [1, 6]: >10 µg/mL
- Antifouling activity 48h EC50 [1, 7]: 1.13 µg/mL
- antifouling activity (in words) ([1]; cypris larvae of Striped Barnacle, within the tested concentration range): effective
- bottom surface-adhered individuals % ([2]; 3 µg/mL (30 µg)): 16.7%
- bottom surface-crawling individuals % ([2]; 3 µg/mL (30 µg)): 0.0%
- overturned individuals or closed shell individuals (unadhered) % ([2]; 3 µg/mL (30 µg)): 58.3%
- wall surface-adhered individuals % ([2]; 3 µg/mL (30 µg)): 25.0%
- number of byssal threads on the bottom surface [2, 9]: 25
- bottom surface-adhered individuals No. ([2]; 3 µg/mL (30 µg)): 2
- bottom surface-crawling individuals No. ([2]; 3 µg/mL (30 µg)): 0
- overturned individuals or closed shell individuals (unadhered) No. ([2]; 3 µg/mL (30 µg)): 7
- wall surface-adhered individuals No. ([2]; 3 µg/mL (30 µg)): 3
- bottom surface-adhered individuals % ([2]; 10 µg/mL (100 µg)): 16.7%
- bottom surface-crawling individuals % ([2]; 10 µg/mL (100 µg)): 0.0%
- number of byssal threads on the bottom surface ([2]; 10 µg/mL (100 µg)): 12
- overturned individuals or closed shell individuals (unadhered) % ([2]; 10 µg/mL (100 µg)): 83.3%
- wall surface-adhered individuals % ([2]; 10 µg/mL (100 µg)): 0.0%
- bottom surface-adhered individuals No. ([2]; 10 µg/mL (100 µg)): 2
- bottom surface-crawling individuals No. ([2]; 10 µg/mL (100 µg)): 0
- overturned individuals or closed shell individuals (unadhered) No. ([2]; 10 µg/mL (100 µg)): 10
- wall surface-adhered individuals No. ([2]; 10 µg/mL (100 µg)): 0
- antifouling effect (overall determination in words) [2]: exhibit an antifouling effect
- antifouling effect (overall determination in words) ([2]; listed as compound 8): effective

SMILES: CC(C)C[C@H](CC(=O)OCc1ccccc1)NC(=O)[C@@H]1CCCN1C(=O)[C@H](CCc1ccccc1)NC(=O)OC(C)(C)C [tripeptide 12] (Boc-[hPhe]-Pro-[d(β3hL)]-OBn)
- Antifouling activity 48h EC50 [1, 5]: 0.5 µg/mL
- Antifouling activity 48h EC50 [1, 8]: 0.49 µg/mL
- Toxicity 48h LC50 [1, 8]: >10 µg/mL

SMILES: CC(C)C(NC(=O)[C@@H]1CCCN1C(=O)[C@H](Cc1ccccc1)NC(=O)OC(C)(C)C)C(C)C(=O)OCc1ccccc1 (stereo partly drawn) [tripeptide 6]
- Antifouling activity 48h EC50 [1, 5]: 1.66 µg/mL
- Toxicity 48h LC50 [1, 6]: >10 µg/mL
- Antifouling activity 48h EC50 [1, 7]: 1.63 µg/mL

SMILES: CCOC(=O)[C@H](CC(C)C)NC(=O)[C@@H]1CCCN1C(=O)[C@H](Cc1ccccc1)NC(=O)OC(C)(C)C [tripeptide 3] (Boc-Phe-Pro-Leu-OEt)
- Antifouling activity 48h EC50 [1, 5]: >10 µg/mL

SMILES: CCOC(=O)[C@H](C)NC(=O)[C@@H]1CCCN1C(=O)[C@H](Cc1ccccc1)NC(=O)OC(C)(C)C [tripeptide 2] (Boc-Phe-Pro-Ala-OEt)
- Antifouling activity 48h EC50 [1, 5]: >10 µg/mL
- Toxicity 48h LC50 [1, 6]: >10 µg/mL
- Antifouling activity 48h EC50 [1, 7]: >10 µg/mL

SMILES: CCOC(=O)CC(C)NC(=O)[C@@H]1CCCN1C(=O)[C@H](Cc1ccccc1)NC(=O)OC(C)(C)C (stereo partly drawn) [tripeptide 10] (Boc-Phe-Pro-[ξβ3hA]-OEt)
- bottom surface-adhered individuals % ([2]; 3 µg/mL (30 µg)): 66.7%
- bottom surface-crawling individuals % ([2]; 3 µg/mL (30 µg)): 0.0%
- overturned individuals or closed shell individuals (unadhered) % ([2]; 3 µg/mL (30 µg)): 8.3%
- wall surface-adhered individuals % ([2]; 3 µg/mL (30 µg)): 25.0%
- number of byssal threads on the bottom surface [2, 9]: 80
- bottom surface-adhered individuals No. ([2]; 3 µg/mL (30 µg)): 8
- bottom surface-crawling individuals No. ([2]; 3 µg/mL (30 µg)): 0
- overturned individuals or closed shell individuals (unadhered) No. ([2]; 3 µg/mL (30 µg)): 1
- wall surface-adhered individuals No. ([2]; 3 µg/mL (30 µg)): 3
- bottom surface-adhered individuals % ([2]; 10 µg/mL (100 µg)): 58.3%
- bottom surface-crawling individuals % ([2]; 10 µg/mL (100 µg)): 0.0%
- number of byssal threads on the bottom surface ([2]; 10 µg/mL (100 µg)): 11.5
- overturned individuals or closed shell individuals (unadhered) % ([2]; 10 µg/mL (100 µg)): 8.3%
- wall surface-adhered individuals % ([2]; 10 µg/mL (100 µg)): 33.3%
- bottom surface-adhered individuals No. ([2]; 10 µg/mL (100 µg)): 7
- bottom surface-crawling individuals No. ([2]; 10 µg/mL (100 µg)): 0
- overturned individuals or closed shell individuals (unadhered) No. ([2]; 10 µg/mL (100 µg)): 1
- wall surface-adhered individuals No. ([2]; 10 µg/mL (100 µg)): 4
- antifouling effect (overall determination in words) [2]: ineffective

SMILES: CC(C)C(NC(=O)[C@@H]1CCCN1C(=O)OC(C)(C)C)C(C)C(=O)OCc1ccccc1 (stereo partly drawn) [dipeptide 11]
- Antifouling activity 48h EC50 [1, 5]: 2.4 µg/mL
- Toxicity 48h LC50 [1, 6]: >10 µg/mL
- Antifouling activity 48h EC50 [1, 7]: 2.39 µg/mL

SMILES: CC(C)(C)OC(=O)N1CCC[C@H]1C(=O)Nc1ccccc1C(=O)OCc1ccccc1 [dipeptide 13, reference compound]
- Antifouling activity 48h EC50 [1, 5]: 0.8 µg/mL
- Antifouling activity 48h EC50 [1, 8]: 0.84 µg/mL
- Toxicity 48h LC50 [1, 8]: >10 µg/mL

SMILES: CCOC(=O)CCNC(=O)[C@@H]1CCCN1C(=O)[C@H](Cc1ccccc1)NC(=O)OC(C)(C)C [tripeptide 4] (Boc-Phe-Pro-[βAla]-OEt)
- Antifouling activity 48h EC50 [1, 5]: >10 µg/mL
- Toxicity 48h LC50 [1, 6]: >10 µg/mL
- Antifouling activity 48h EC50 [1, 7]: >10 µg/mL

SMILES: CCOC(=O)CCCNC(=O)[C@@H]1CCCN1C(=O)[C@H](Cc1ccccc1)NC(=O)OC(C)(C)C [tripeptide 5] (Boc-Phe-Pro-[GABA]-OEt)
- Antifouling activity 48h EC50 [1, 5]: >10 µg/mL
- Toxicity 48h LC50 [1, 6]: >10 µg/mL
- Antifouling activity 48h EC50 [1, 7]: >10 µg/mL

SMILES: CC(CC(=O)OCc1ccccc1)NC(=O)[C@@H]1CCCN1C(=O)[C@H](Cc1ccccc1)NC(=O)OC(C)(C)C (stereo partly drawn) [tripeptide 9] (Boc-Phe-Pro-[ξβ3hA]-OBn)
- bottom surface-adhered individuals % ([2]; 3 µg/mL (30 µg)): 75.0%
- bottom surface-crawling individuals % ([2]; 3 µg/mL (30 µg)): 0.0%
- overturned individuals or closed shell individuals (unadhered) % ([2]; 3 µg/mL (30 µg)): 16.7%
- wall surface-adhered individuals % ([2]; 3 µg/mL (30 µg)): 8.3%
- number of byssal threads on the bottom surface [2, 9]: 73
- bottom surface-adhered individuals No. ([2]; 3 µg/mL (30 µg)): 9
- bottom surface-crawling individuals No. ([2]; 3 µg/mL (30 µg)): 0
- overturned individuals or closed shell individuals (unadhered) No. ([2]; 3 µg/mL (30 µg)): 2
- wall surface-adhered individuals No. ([2]; 3 µg/mL (30 µg)): 1
- bottom surface-adhered individuals % ([2]; 10 µg/mL (100 µg)): 58.3%
- bottom surface-crawling individuals % ([2]; 10 µg/mL (100 µg)): 0.0%
- number of byssal threads on the bottom surface ([2]; 10 µg/mL (100 µg)): 34
- overturned individuals or closed shell individuals (unadhered) % ([2]; 10 µg/mL (100 µg)): 33.3%
- wall surface-adhered individuals % ([2]; 10 µg/mL (100 µg)): 8.3%
- bottom surface-adhered individuals No. ([2]; 10 µg/mL (100 µg)): 7
- bottom surface-crawling individuals No. ([2]; 10 µg/mL (100 µg)): 0
- overturned individuals or closed shell individuals (unadhered) No. ([2]; 10 µg/mL (100 µg)): 4
- wall surface-adhered individuals No. ([2]; 10 µg/mL (100 µg)): 1
- antifouling effect (overall determination in words) [2]: effective

SMILES: O=S(=O)([O-])[O-].[Cu+2] [Copper sulfate]
- bottom surface-adhered individuals % ([3]; 3 µg/mL (30 µg), three days): 0.0%
- bottom surface-crawling individuals % ([3]; 3 µg/mL (30 µg), three days): 0.0%
- overturned individuals or closed shell individuals (unadhered) % ([3]; 3 µg/mL (30 µg), three days): 100.0%
- wall surface-adhered individuals % ([3]; 3 µg/mL (30 µg), three days): 0.0%
- number of byssal threads on the bottom surface ([3]; 3 µg/mL (30 µg), three days, control group 118): 2
- bottom surface-adhered individuals No. [3, 10]: 0
- bottom surface-crawling individuals No. [3, 10]: 0
- overturned individuals or closed shell individuals (unadhered) No. [3, 10]: 12
- wall surface-adhered individuals No. [3, 10]: 0
- antifouling effect (overall determination in words) ([3]; juvenile Mediterranean mussel, 3.0 µg/mL and 10 µg/mL): high
- Antifouling activity 48h EC50 [4, 7]: 0.41 µg/mL
- Antifouling activity 48h EC50 [4, 8]: 0.3 µg/mL
